Legend:
[1] = tested on: OVA sensitized and challenged wild type mice; assay: OVA sensitization and challenge model of Th2 inflammation; type: in vivo; conditions: for antigen-stimulated IL-4 production / antigen-stimulated IL-13 production: BAL from OVA sensitized and challenged mice, antagonist IP; for onset of a Th2 mediated inflammatory disease: disease induced by allergen (ovalbumin sensitization) or genetic predisposition, summary statement; for airways hyperresponsiveness (AHR), methacholine responsiveness / BAL and tissue inflammation: wild type mice sensitized and challenged with OVA, SU1498 10 mg/kg/day or VEGF TrapR1R2 25 mg/kg, IP; for BAL and tissue inflammation: starting the day before first OVA dose
Experimental: The OVA model was undertaken in wild type mice as previously described (Wang et al., 2000). Sensitization and challenge were undertaken in the presence and absence of the VEGF receptor antagonist SU1498 (10 mg/kg/day) or VEGF TrapR1R2 (Regeneron, Inc., Tarrytown, N.Y.) (25 mg/kg) which were given via an intraperitoneal (IP) route starting the day before the first dose of OVA. The VEGF TrapR1R2 is a fusion protein comprised of the extracellular domains of VEGFR1 and VEGFR2 coupled to the Fc-portion of IgG that binds VEGF-A, but not VEGF-B or VEGF-C (Cursiefen et al., 2004). T-bet null mutant mice (Finotto et al., 2002) were obtained from the Jackson Laboratories (Bar Harbor, Me.). At 6 weeks of age they were randomized to SU1498 or control vehicle as described above. Two weeks later phenotypic characterization was undertaken as described above.

VEGF-A = target: T1, VEGF-A (Homo sapiens, UniProt P15692); conditions: cited from earlier work
T1 sequence (P15692 207-320 limits assumed): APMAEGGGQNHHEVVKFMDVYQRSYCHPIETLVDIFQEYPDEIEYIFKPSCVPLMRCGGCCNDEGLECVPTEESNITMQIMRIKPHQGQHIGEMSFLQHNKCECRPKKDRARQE

VEGF-B = target: T2, VEGF-B (Homo sapiens, UniProt P49765); conditions: cited from earlier work
T2 sequence (P49765 22-136 limits assumed): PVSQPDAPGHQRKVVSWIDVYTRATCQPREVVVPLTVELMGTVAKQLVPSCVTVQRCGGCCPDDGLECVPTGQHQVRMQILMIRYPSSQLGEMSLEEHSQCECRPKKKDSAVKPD

VEGF-C = target: T3, VEGF-C (Homo sapiens, UniProt P49767); conditions: cited from earlier work
T3 sequence (P49767 112-227 limits assumed): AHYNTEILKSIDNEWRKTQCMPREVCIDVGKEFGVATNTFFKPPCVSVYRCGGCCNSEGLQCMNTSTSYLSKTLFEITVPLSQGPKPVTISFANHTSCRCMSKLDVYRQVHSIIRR

Row | Compound | antigen-stimulated IL-4 production [1] | antigen-stimulated IL-13 production [1] | onset of a Th2 mediated inflammatory disease [1] | airways hyperresponsiveness (AHR), methacholine responsiveness [1] | BAL and tissue inflammation [1] | binding to VEGF-A (VEGF-A) | binding to VEGF-B (VEGF-B) | binding to VEGF-C (VEGF-C)
1 | CC(C)c1cc(/C=C(\C#N)C(=O)NCCCc2ccccc2)cc(C(C)C)c1O [SU1498, reference compound] | markedly decreased | markedly decreased | prevented onset | markedly decreased | markedly decreased |  |  | 
2 | VEGF TrapR1R2: fusion protein comprised of the extracellular domains of VEGFR1 and VEGFR2 coupled to the Fc-portion of IgG (Regeneron) | markedly decreased | markedly decreased | prevented onset | abrogates | abrogates | binds | not | not

From patent US20090155266A1, “Methods and Compositions Relating to Vascular Endothelial Growth Factor and TH2 Mediated Inflammatory Diseases” (YALE UNIVERSITY, priority 2004, published 2009)
